Results reported in patent US7022315B2, “Administration of a thiol-based chemoprotectant compound” (Oregon Health & Science University, priority 2000, dated 2006).
Converted amounts (≈) assume the structure as drawn. Read-outs that look alike come from different tables or passages of the source.

Tests used:
[1] = system: LX-1 SCLC cells
Method: Chemotherapy cytotoxicity was assessed in cultured LX-1 SCLC cells (1×10^4 cells/well in 96 well plates) using the WST colorometric assay. […] Cells then received either no protectant (open bars), or sodium thiosulfate, 2000 μg/ml, added immediately (striped bars), 2 hours (black bars) or 4 hours (cross hatched bars) after chemotherapy. Data are expressed as the percentage of live cells compared to control samples (without chemotherapy) and each point represents the mean±standard deviation of 4 wells.
The thiol chemoprotectants were added either concurrently with chemotherapy or up to 8 hours after chemotherapy.

[2] = system: LX-1 SCLC cells; test: cells; conditions: for EC50 / Chemoprotective agent EC50: average ± pooled sd of two experiments
Method: Cytotoxicity was assessed in cultured LX-1 SCLC cells, 1×10^4 cells per well in 96 well plates, using the WST colorometric assay. […] Chemoprotectant was added at the indicated concentration of N-acetylcysteine shown in FIG. 3A or D-methionine shown in FIG. 3B either alone (n) or immediately following chemotherapy. Data are expressed as the percentage of live cells compared to untreated control samples (without chemotherapy) and each point represents the mean±standard deviation of 4 wells.
The dose/response for rescue from chemotherapy cytotoxicity was evaluated for four different small molecular weight sulfur containing chemoprotectants.
Chemotherapy agents were fixed at the 90% lethal dose for each agent. Each EC50 measurement comprised 6 concentrations with 4 wells per concentration, and each dose response was performed twice for each protectant. EC50 concentrations, in μg/ml are reported as the average±pooled standard deviation for two independent experiments.

[3] = cited from earlier work
[4] = system: rats; test: Protection against chemotherapy-induced myelosuppression, nadir blood counts; format: in vivo, rat; conditions: STS alone; data not shown
Method: FIGS. 10A–10D show the results of tests on chemoprotection for chemotherapy-induced myelosuppression. Rats received tri-drug chemotherapy (Carboplatin 200 mg/m2, etoposide phosphate 100 mg/m2, melphalan 10 mg/m2), with (triangles, squares) or without (circles) chemoprotection. Blood counts were determined prior to chemotherapy, at the blood nadir (6 days), and in the recovery phase (9 days after treatment). Chemoprotection was with NAC (1200 mg/kg) administered via aortic infusion 30 min prior to chemotherapy (triangles) or NAC prior to chemotherapy and STS (8 g/m2) immediately after chemotherapy (squares). In FIG. 10B and FIG. 10D animals received BSO (10 mg/kg i.p.×3 d) prior to treatment with chemotherapy. […] Significant difference from the no protectant groups were determined by Wilcoxon/Kruskal-Walliis rank sums tests (*p<0.05, **p<0.01).
Chemoprotection against chemotherapy-induced bone marrow toxicity was determined in BSO treated and untreated animals given i.a. carboplatin, etoposide phosphate, and melphalan. NAC with or without STS was administered either about 30 minutes prior to chemotherapy or immediately after chemotherapy, and was administered either i.v. or by aortic infusion.

[5] = system: B.5 LX-1 cells; test: cells; conditions: for EC50: Homo sapiens
Method: FIGS. 4A and 4B show cytoenhancement and chemoprotection. […] Cytotoxicity was assessed in cultured LX-1 SCLC cells, 1×10^4 cells per well in 96 well plates, using the WST colorometric assay. BSO cytoenhancement consisted of preincubation at 100 μM BSO for 18 hours. The chemoprotective agent was added immediately after chemotherapy. The experimental conditions were dose/responses for chemotherapy (carboplatin or etoposide phosphate) alone (m), BSO cytoenhancement ( ? ), N-acetylcysteine rescue, (1000 μg/ml N-acetylcysteine, n), or BSO cytoenhancement and N-acetylcysteine rescue (u). Data are expressed as the percentage of live cells compared to untreated control samples without chemotherapy and each point represents the mean±standard deviation of 4 wells.
The effects of BSO cytoenhancement and thiol chemoprotection on the dose/response relationships for cytotoxicity of the alkylating chemotherapeutics were evaluated in the B.5 LX-1 cells. BSO cytoenhancement consisted of preincubation with 100 μM BSO for about 18–24 hours prior to addition of chemotherapy, and rescue consisted of 1000–2000 μg/ml of thiol chemoprotectant added immediately after chemotherapy.
Cytoenhancement and chemoprotection against non-alkylating chemotherapeutic agents was also evaluated.
Half-maximal cytotoxic concentrations (EC50) are expressed as μg/ml. Each EC50 measurement comprised 6 concentrations with 4 wells per concentration, and each dose response was performed in triplicate for each chemotherapeutic agent. Data are reported as the mean±pooled standard deviation for three independent experiments. P values are shown for the reduction in EC50 by BSO treatment (*=P<0.05, **=P<0.01, ***=P<0.001).

[6] = system: GM294 human fibroblasts; test: Cytoenhancement and chemoprotection in fibroblasts, WST assay; format: cell-based
Method: Cytotoxicity was assessed in GM294 human fibroblasts, 1×10^4 cells per well in 96 well plates, using the WST colorometric assay. […] Data are expressed as the percentage of live cells compared to control samples (without chemotherapy) and each point represents the mean±s.d. of 4 wells.

[7] = system: Caspase-2 activity in B.5 LX-1 cells; test: Caspase-2 enzymatic activity (apoptosis); format: cell-based; conditions: for increase in caspase activity: variable between experiments
Method: (§1) FIGS. 7A and 7B show the effect of cytoenhancement and chemoprotection on apoptosis. […] Apoptosis was assessed in cultured LX-1 SCLC cells pretreated for 18 hours with or without 100 μM BSO. The experimental conditions were no addition (open bars), melphalan (10 μg/ml, striped bars) or melphalan (10 μg/ml) plus N-acetylcysteine (1000 μg/ml) (cross hatched bars) for 20 h prior to harvest. Caspase-2 activity is expressed as percentage activity in untreated control samples (mean±standard deviation, n=3). TUNEL staining is expressed as the percentage of cells showing positive staining.
(§2) Apoptosis was evaluated by measuring Caspase-2 enzymatic activity and by in situ TUNEL staining. […] The increase in caspase activity was variable between experiments and ranged from 50–100% at 7–8 h to 250–600% at 20–24 h after treatment with melphalan. […] In the experiment shown in FIG. 7B, TUNEL staining after melphalan treatment was positive in 29 of 3643 cells, compared to 7 of 4395 cells in the untreated control, and BSO treatment prior to melphalan increased the positive staining to 800 of 1699 cells. […] In both assays, activity was maximal with low doses of melphalan, or with a 1 hour pulse treatment with the doses used in the cytotoxicity assays.
Samples of the cells used in the caspase and TUNEL assays were also evaluated for membrane permeability by trypan blue exclusion.

[8] = system: cultured tumor cells; test: Paclitaxel cytotoxicity with BSO and NAC (WST); format: cell-based
[9] = system: B.5 LX-1 cells; test: In situ TUNEL staining for DNA fragmentation; format: cell-based
Method: as §1, §2

[10] = read-out: Chemoprotective agent EC50, protection against carboplatin 200 μg/ml (about 90% lethal dose)
[11] = read-out: Chemoprotective agent EC50, protection against cisplatin 15 μg/ml (about 90% lethal dose)

## CSCC[C@@H](N)C(=O)O [D-methionine]
[1]; delayed for 2 hours after cisplatin
  reduction of protection against cisplatin compared to simultaneous addition: 41.2±10.2%
[1]; delayed to 4 hours after cisplatin
  reduction of protection against cisplatin compared to simultaneous addition: 66.1±4.5%
[1]; pretreatment for 30 min prior to cisplatin
  protection against cisplatin compared to simultaneous addition: did not increase the amount of protection
[2]; [10]
  EC50: 379 ± 123 µg/mL (≈ 2540 µM)
[2]; [11]
  EC50: 140 ± 41 µg/mL (≈ 938 µM)

## O=S(O)(O)=S [STS, sodium thiosulfate]
[1]; melphalan 20 μg/ml, protectant delayed (2 hours for STS)
  protection against melphalan cytotoxicity with delayed addition: chemoprotection was reduced
[1]; protectant delayed (up to 4 hours for STS)
  protection against platinum (carboplatin, cisplatin) cytotoxicity with delayed addition: still protective
[2]; [10]
  EC50: 442 ± 203 µg/mL
[2]; [11]
  EC50: 86 ± 76 µg/mL
[2]; read-out: Chemoprotective agent EC50, protection against melphalan 20 μg/ml (about 90% lethal dose)
  EC50: 110 ± 78 µg/mL
[3]; after a bolus injection
  plasma half life: about 17 minutes
[3]; i.v. administration
  brain levels: < 5 % of blood
[4]
  bone marrow protection: did not give consistent bone marrow protection

## COc1cccc2c1C(=O)c1c(O)c3c(c(O)c1C2=O)C[C@@](O)(C(=O)CO)C[C@@H]3O[C@H]1C[C@H](N)[C@H](O)[C@H](C)O1 [doxorubicin]
[5]
  BSO enhancement or N-acetylcysteine protection of the agent's cytotoxicity: no enhancement or protection

## CCCCS(=N)(=O)CCC(N)C(=O)O (stereo not drawn) [BSO, buthionine sulfoximine]
[6]; 100 μM for 18 hours pretreatment
  effect on toxicity of melphalan, cisplatin and carboplatin: enhanced the toxicity of all three alkylators
[7]
  effect on cisplatin- or carboplatin-induced caspase activity: No significant amplification of caspase activity
[7]; BSO pretreatment, low melphalan concentrations
  effect on melphalan-induced Caspase-2 activity: amplified

## CCOC(=O)CNC(=O)[C@H](CS)NC(=O)CC[C@H](N)C(=O)O [Glutathione ethyl ester]
[2]; on a μg/ml basis
  relative effectiveness among the thiol agents tested: least effective
[2]; protection against carboplatin 200 μg/ml (about 90% lethal dose)
  Chemoprotective agent EC50: 995 ± 48 µg/mL
[2]; protection against cisplatin 15 μg/ml (about 90% lethal dose)
  Chemoprotective agent EC50: 530 ± 30 µg/mL
[2]; protection against melphalan 20 μg/ml (about 90% lethal dose)
  Chemoprotective agent EC50: 303 ± 124 µg/mL

## COc1cc([C@@H]2c3cc4c(cc3[C@@H](O[C@@H]3O[C@@H]5CO[C@@H](C)O[C@H]5[C@H](O)[C@H]3O)[C@H]3COC(=O)[C@H]23)OCO4)cc(OC)c1OP(=O)(O)O [etoposide phosphate]
[5]
  BSO enhancement or N-acetylcysteine protection of the agent's cytotoxicity: BSO did not increase the cytotoxicity of etoposide phosphate, nor did N-acetylcysteine decrease the cytotoxicity
[6]
  effect of BSO and N-acetylcysteine on the agent's cytotoxicity: neither BSO cytoenhancement nor N-acetylcysteine chemoprotection affected the cytotoxicity

## CC(=O)O[C@H]1C(=O)[C@@]2(C)[C@H]([C@H](OC(=O)c3ccccc3)[C@]3(O)C[C@H](OC(=O)[C@H](O)[C@@H](NC(=O)c4ccccc4)c4ccccc4)C(C)=C1C3(C)C)[C@]1(OC(C)=O)CO[C@@H]1C[C@@H]2O [paclitaxel]
[5]; not altered by BSO
  growth inhibitory dose: approximately 10 nM
[8]; cells pretreated with BSO
  dose completely cytotoxic in vitro: ≥ 5 µM
[8]; paclitaxel dose 5 (unit not given)
  live cells (WST fluorescence): 1.274 +/− .071
[8]; paclitaxel dose 20 (unit not given)
  live cells (WST fluorescence): 0.771 +/− .056
[8]; without BSO
  concentration at which it begins to be cytotoxic: 20 µM
  concentration at which it is completely toxic: 30 µM

## N.N.O=C([O-])C1(C(=O)[O-])CCC1.[Pt+2] [Carboplatin, carboplatin]
[5]; 100 μM BSO preincubation
  reduction of EC50 for cytotoxicity by BSO: 48%
[5]; Without BSO, mean ± pooled sd of three experiments
  Chemotherapy EC50 (cytotoxicity): 103 ± 21 µg/mL

## CN(Cc1cnc2nc(N)nc(N)c2n1)c1ccc(C(=O)N[C@@H](CCC(=O)O)C(=O)O)cc1 [methotrexate]
[5]
  BSO enhancement or N-acetylcysteine protection of the agent's cytotoxicity: no enhancement or protection

## N[C@@H](Cc1ccc(N(CCCl)CCCl)cc1)C(=O)O [Melphalan, melphalan]
[9]; BSO treatment prior to melphalan
  TUNEL staining positive cells: 800 of 1699
[9]; melphalan treatment without BSO
  TUNEL staining positive cells: 29 of 3643
[5]
  reduction of EC50 for cytotoxicity by BSO: 53%
[5]; LX-1, read-out: Chemotherapy EC50 (cytotoxicity), + BSO (100 μM preincubation 18–24 hours), mean ± pooled sd of three experiments
  EC50: 6.4 ± 0.6 µg/mL
[5]; LX-1, read-out: Chemotherapy EC50 (cytotoxicity), Without BSO, mean ± pooled sd of three experiments
  EC50: 13.8 ± 1.8 µg/mL (≈ 45.2 µM)
[7]; 7–8 h after treatment
  increase in caspase activity: 50–100%
[7]; 20–24 h after treatment
  increase in caspase activity: 250–600%
